Experimental data: US20150352108A1, “AMINO-PYRIMIDINE COMPOUNDS AS INHIBITORS OF TBK1 AND/OR IKK EPSILON” (Alzheimer's Institute of America, priority 2009, published 2015)
Read-outs that look alike come from different tables or passages of the source.

How the values were obtained:
IKKε = target: T1, IKKε (Homo sapiens, UniProt Q14164); test: In-vitro IKKε kinase assay ([γ33]ATP filter-plate); type: biochemical
T1 construct: His-tag; made in house; host or cells: Sf9 insect cells
T1 sequence (Q14164 1-716): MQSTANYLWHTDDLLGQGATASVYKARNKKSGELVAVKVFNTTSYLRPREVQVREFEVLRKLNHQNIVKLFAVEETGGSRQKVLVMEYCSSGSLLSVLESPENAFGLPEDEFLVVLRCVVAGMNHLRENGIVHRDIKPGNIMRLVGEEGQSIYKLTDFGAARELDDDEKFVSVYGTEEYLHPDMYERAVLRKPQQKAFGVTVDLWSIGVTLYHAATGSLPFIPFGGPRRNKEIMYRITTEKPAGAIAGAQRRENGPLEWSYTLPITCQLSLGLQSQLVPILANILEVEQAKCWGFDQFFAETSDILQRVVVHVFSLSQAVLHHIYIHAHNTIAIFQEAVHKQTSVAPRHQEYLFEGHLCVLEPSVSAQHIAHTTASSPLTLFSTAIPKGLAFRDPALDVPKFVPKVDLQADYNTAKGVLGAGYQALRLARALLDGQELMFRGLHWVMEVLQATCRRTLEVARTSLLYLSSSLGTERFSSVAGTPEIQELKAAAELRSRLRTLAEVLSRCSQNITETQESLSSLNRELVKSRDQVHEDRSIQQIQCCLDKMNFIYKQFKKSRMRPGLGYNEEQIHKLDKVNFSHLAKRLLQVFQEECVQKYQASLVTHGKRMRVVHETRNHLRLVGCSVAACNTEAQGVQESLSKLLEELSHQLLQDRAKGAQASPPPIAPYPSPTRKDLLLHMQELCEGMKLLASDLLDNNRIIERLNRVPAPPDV
Outline: (§1)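 Phosphorylation of casein or myelin basic protein was counted by P-81 filter capture after 30-45 min reactions stopped with phosphoric acid, with counts normalized to DMSO after background subtraction. ATP was twice Km: 60 μM for TBK1 and 32 μM for IKKε, plus [γ33]ATP. Sf9-expressed His-tag enzymes were used at normal/sensitized levels of 0.1/0.02 μg/ml (TBK1) and 0.1/0.015 μg/ml (IKKε).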

TBK1 = target: T2, TBK1 (Homo sapiens, UniProt Q9UHD2); test: In-vitro TBK1 kinase assay ([γ33]ATP filter-plate); type: biochemical
T2 construct: His-tag; made in house; host or cells: Sf9 insect cells
T2 sequence (Q9UHD2 1-729): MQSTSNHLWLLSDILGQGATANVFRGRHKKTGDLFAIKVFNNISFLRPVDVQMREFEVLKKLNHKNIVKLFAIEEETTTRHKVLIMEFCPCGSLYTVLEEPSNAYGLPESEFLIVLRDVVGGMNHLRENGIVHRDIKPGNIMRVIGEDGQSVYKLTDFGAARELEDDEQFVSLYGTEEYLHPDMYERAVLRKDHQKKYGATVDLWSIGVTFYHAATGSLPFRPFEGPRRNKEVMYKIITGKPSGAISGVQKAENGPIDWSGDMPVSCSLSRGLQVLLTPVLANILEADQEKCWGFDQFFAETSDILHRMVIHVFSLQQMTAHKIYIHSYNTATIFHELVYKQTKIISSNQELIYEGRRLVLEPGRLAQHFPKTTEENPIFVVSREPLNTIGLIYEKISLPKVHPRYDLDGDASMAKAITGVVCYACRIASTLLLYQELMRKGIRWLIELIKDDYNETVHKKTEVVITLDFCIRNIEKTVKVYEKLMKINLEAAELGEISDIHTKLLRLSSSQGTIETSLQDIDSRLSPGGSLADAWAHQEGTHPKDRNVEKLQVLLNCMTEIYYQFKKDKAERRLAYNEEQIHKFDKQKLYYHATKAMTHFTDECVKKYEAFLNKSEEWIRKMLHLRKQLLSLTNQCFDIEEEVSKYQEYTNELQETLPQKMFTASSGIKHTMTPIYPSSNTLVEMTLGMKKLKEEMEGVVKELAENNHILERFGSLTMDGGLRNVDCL
Outline: as §1

[1] = tested on: IKKε-mediated phosphorylation of IRF3; test: In-situ phosphorylation of IRF3 (pIRF3 Ser396 ELISA) in HEK293T cells cotransfected with IRF3 and IKKε; type: cell-based; details: Homo sapiens, HEK-293T
Outline: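 For the IRF3 ELISA, HEK293T cells cotransfected with IRF3 and IKKε were replated at 20,000/well and treated 20 h. Phospho-Ser396 IRF3 was measured by ELISA and normalised to DMSO, with viability checked by CellTiter-Glo. For IRF7, cells transfected with IRF7 and TBK1 were treated overnight, and pSer477/Ser479 IRF7 was detected by Western blot.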

[2] = text bins, read-out: IC50 for inhibition of the kinase activity of IKKε
[3] = text bins, read-out: IC50 for inhibition of the kinase activity of TBK1
[4] = HEK293T cells, 20 hours, text bins, read-out: IC50 for inhibition of the in-situ IKKε-mediated phosphorylation of IRF3
[5] = HEK293T cells in culture, Table 3, read-out: pIRF3 ELISA IC50

Structure (SMILES) | IC50 (IKKε; [2]) | IC50 (TBK1; [3]) | IC50 [1, 4] | IC50 (IKKε; Table 3, read-out: IKKε IC50) | IC50 (TBK1; Table 3, read-out: TBK1 IC50) | IC50 [1, 5]
CN1CCN(C(=O)Nc2ccc(Nc3nccc(-c4ccc(OC5CCOCC5)c(C#N)c4)n3)cc2)CC1 [Example 20, N-[4-({4-[3-cyano-4-(tetrahydro-2H-pyran-4-yloxy)phenyl]pyrimidin-2-yl}amino)phenyl]-4-methylpiperazine-1-carboxamide] | < 5 nM | < 10 nM | 250 to 500 nM | – | – | –
CNS(=O)(=O)Cc1ccc(Nc2nccc(-c3ccc(OC4CCOCC4)c(C#N)c3)n2)cc1 [compound 413, 1-[4-({4-[3-cyano-4-(tetrahydro-2H-pyran-4-yloxy)phenyl]pyrimidin-2-yl}amino)phenyl]-N-methylmethane-sulfonamide] | < 5 nM | < 10 nM | < 100 nM | – | – | –
N#Cc1cc(-c2ccnc(Nc3ccc(N4CCOCC4)cc3)n2)ccc1OCC1CCNCC1 [Example 72, 5-(2-{[4-(morpholin-4-yl)phenyl]amino}pyrimidin-4-yl)-2-(piperidin-4-ylmethoxy) benzonitrile] | < 5 nM | 10 to 100 nM | 250 to 500 nM | – | – | –
Cc1ccc(Nc2nccc(-c3ccc(OC4CCOCC4)c(C#N)c3)n2)cc1OCCCN1CCOCC1 [compound 517, 5-[2-({4-Methyl-3-[3-(morpholin-4-yl)propoxy]phenyl}amino)pyrimidin-4-yl]-2-(tetrahydro-2H-pyran-4-yloxy)benzonitrile] | < 5 nM | < 10 nM | < 100 nM | – | – | –
CN(C)CCCNS(=O)(=O)c1ccc(Nc2nccc(-c3ccc(OC4CCOCC4)c(C#N)c3)n2)cc1 [Example 3, 4-({4-[3-cyano-4-(tetrahydro-2H-pyran-4-yloxy)phenyl]pyrimidin-2-yl}amino)-N-[3-(dimethylamino)propyl] benzenesulfonamide] | < 5 nM | < 10 nM | 250 to 500 nM | 2.8 nM | 0.2 nM | 280 nM
N#Cc1cc(-c2ccnc(Nc3ccc(N4CCOCC4)cc3)n2)ccc1OCC1CC1 [compound 438, 2-(cyclopropylmethoxy)-5-(2-{[4-(morpholin-4-yl)phenyl]amino}pyrimidin-4-yl)benzonitrile] | < 5 nM | < 10 nM | < 100 nM | – | – | –
COc1cc(-c2ccnc(Nc3ccc(N4CCOCC4)cc3)n2)cc(C#N)c1OC1CCN(C(=O)[C@@H](C)O)CC1 [compound 436, 2-({1-[(2R)-2-Hydroxypropanoyl]piperidin-4-yl}oxy)-3-methoxy-5-(2-{[4-(morpholin-4-yl)phenyl]amino}pyrimidin-4-yl)benzonitrile] | < 5 nM | < 10 nM | < 100 nM | – | – | –
N#Cc1cc(-c2ccnc(Nc3cccc(CS(=O)(=O)NCCO)c3)n2)ccc1NC(=O)C1CC1 [compound 627, N-(2-Cyano-4-{2-[(3-{[(2-hydroxyethyl)sulfamoyl]methyl}phenyl)amino]pyrimidin-4-yl}phenyl) cyclopropane-carboxamide] | < 5 nM | < 10 nM | – | 3 nM | 1.3 nM | 1100 nM
COc1cc(Nc2nccc(-c3ccc(OC4CCOCC4)c(C#N)c3)n2)ccc1CO [compound 498, 5-(2-{[4-(hydroxymethyl)-3-methoxyphenyl]amino}pyrimidin-4-yl)-2-(tetrahydro-2H-pyran-4-yloxy)benzonitrile] | < 5 nM | < 10 nM | < 100 nM | – | – | –
COc1cc(Nc2nccc(-c3ccc(OC4CCOCC4)c(C#N)c3)n2)ccc1C(=O)N1CCC(N2CCCC2)C1 (centres unmarked) [compound 502, 5-(2-{[4-(1,3′-bipyrrolidin-1′-ylcarbonyl)-3-methoxyphenyl]amino}pyrimidin-4-yl)-2-(tetrahydro-2H-pyran-4-yloxy)benzonitrile] | < 5 nM | < 10 nM | < 100 nM | – | – | –
COc1cc(Nc2nccc(-c3ccc(OC4CCOCC4)c(C#N)c3)n2)ccc1CN1CC(N2CCOCC2)C1 [compound 481, 5-{2-[(3-Methoxy-4-{[3-(morpholin-4-yl)azetidin-1-yl]methyl}phenyl)amino]pyrimidin-4-yl}-2-(tetrahydro-2H-pyran-4-yloxy)benzonitrile] | < 5 nM | < 10 nM | < 100 nM | – | – | –
N#Cc1cc(-c2ccnc(Nc3cccc(N4CCN(CCO)CC4)c3)n2)ccc1OC1CCOCC1 [compound 620, 5-[2-({3-[4-(2-Hydroxyethyl)piperazin-1-yl]phenyl}amino)pyrimidin-4-yl]-2-(tetrahydro-2H-pyran-4-yloxy)benzonitrile] | < 5 nM | < 10 nM | < 100 nM | 0.7 nM | 1.9 nM | 50.3 nM
COc1ccc(Nc2nccc(-c3ccc(N(C)C)c(C#N)c3)n2)cc1OC [Example 206, 5-{2-[(3,4-Dimethoxyphenyl)amino]pyrimidin-4-yl}-2-(dimethylamino) benzonitrile] | < 5 nM | < 10 nM | 250 to 500 nM | – | – | –
COc1ccc(Nc2nccc(-c3ccc(OC4CCOCC4)c(C#N)c3)n2)cc1OCCCN1CCNCC1 [compound 526, 5-[2-({4-methoxy-3-[3-(piperazin-1-yl)propoxy]phenyl}amino)pyrimidin-4-yl]-2-(tetrahydro-2H-pyran-4-yloxy)benzonitrile] | < 5 nM | < 10 nM | 100 to 250 nM | – | – | –
N#Cc1cc(-c2ccnc(Nc3ccc(F)c(OCCN4CCNCC4)c3)n2)ccc1OC1CCOCC1 [compound 626, 5-[2-({4-Fluoro-3-[2-(piperazin-1-yl)ethoxy]phenyl}amino)pyrimidin-4-yl]-2-(tetrahydro-2H-pyran-4-yloxy)benzonitrile] | < 5 nM | < 10 nM | < 100 nM | – | – | –
CC(C)(C)CC(=O)Nc1ccc(-c2ccnc(Nc3ccc(N4CCOCC4)cc3)n2)cc1C#N [Example 202, N-[2-cyano-4-(2-{[4-(morpholin-4-yl)phenyl]amino}pyrimidin-4-yl)phenyl]-3,3-dimethylbutanamide] | 5 to 50 nM | < 10 nM | 100 to 250 nM | – | – | –
CC1(COc2ccc(-c3ccnc(Nc4ccc(N5CCN(CCO)CC5)cc4)n3)cc2C#N)COC1 [compound 437, 5-[2-({4-[4-(2-Hydroxyethyl)piperazin-1-yl]phenyl}amino)pyrimidin-4-yl]-2-[(3-methyloxetan-3-yl)methoxy] benzonitrile] | < 5 nM | < 10 nM | 100 to 250 nM | – | – | –
COc1cc(Nc2nccc(-c3ccc(OC4CCOCC4)c(C#N)c3)n2)ccc1C(=O)N1CC(N2CCOCC2)C1 [compound 475, 5-{2-[(3-Methoxy-4-{[3-(morpholin-4-yl)azetidin-1-yl]carbonyl}phenyl)amino]pyrimidin-4-yl}-2-(tetrahydro-2H-pyran-4-yloxy)benzonitrile] | < 5 nM | < 10 nM | < 100 nM | – | – | –
N#Cc1cc(-c2ccnc(Nc3ccc(F)c(OCCN)c3)n2)ccc1OCC1CC1 [compound 612, 5-(2-{[3-(2-Aminoethoxy)-4-fluorophenyl]amino}pyrimidin-4-yl)-2-(cyclopropylmethoxy) benzonitrile] | < 5 nM | < 10 nM | 100 to 250 nM | – | – | –
